Reference: US20230149507A1, “TREATMENT OF ALT CANCERS” (INSTITUTO DE MEDICINA MOLECULAR JOÃO LOBO ANTUNES, priority 2019, published 2023)

How the values were obtained:
U2OS and HeLa cells = test: Indirect IF with anti-BLM and anti-TRF2 antibodies, camptothecin treatment; assay type: cell-based, human
From the text: HeLa cervical cancer, HT1080 fibrosarcoma, and HEK293 embryonic kidney cells were purchased from ATCC. U2OS osteosarcoma cells were a kind gift from M. Lopes (IMCR, Zurich, Switzerland). HuO9, Saos2 and HOS osteosarcoma cells were a kind gift from B. Fuchs (Balgrist University Hospital, Zurich, Switzerland). WI-38 VA13 in vitro SV40-transformed lung fibroblasts were a kind gift from A. Londoño-Vallejo (CNRS, Paris, France). SKNAS neuroblastoma cells were a kind gift from O. Shakhova (University Hospital Zurich, Switzerland). HeLa, HT1080, HEK293, U2OS, and WI-38 VA13 cells were cultured in high glucose DMEM, GlutaMAX (Thermo Fisher Scientific) supplemented with 10% tetracycline-free fetal bovine serum (Pan BioTech) and 100 U/ml penicillin-streptomycin (Thermo Fisher Scientific). HuO9, Saos2, HOS and SKNAS cells were cultured in high glucose DMEM/F12, GlutaMAX (Thermo Fisher Scientific), supplemented with 10% tetracycline-free fetal bovine serum (Pan BioTech), 100 U/ml penicillin-streptomycin (Thermo Fisher Scientific) and non-essential amino acids (Thermo Fisher Scientific). Mycoplasma contaminations were tested using the VenorGeM Mycoplasma PCR Detection Kit (Minerva Biolabs) according to the manufacturer's instructions. […]

U-2 OS ALT cells = test: Metaphase-TIFs after FANCM knockdown with siRNA; assay type: cell-based, human; conditions: compared to the scrambled control; siRNA 30 nM, 72 h
From the text: (§1) (a) Representative images of telomere (green) and γ-H2AX (red) colocalizations on metaphase spreads (meta-TIFs) in U-2 OS cells with or without FANCM depletion (left panel). Meta-TIFs are indicated by white arrows. Scale bars are 5 μm. Quantitation of TIFs (right panel). Scatterplot bars represent the mean±SEM. Out of 3 experiments, n≥81 metaphases scored per treatment, **p<0.005, Mann-Whitney test. (b) Native and denatured TRF analysis of U-2 OS cells with or without FANCM depletion. Colored arrows correspond to telomeric DNA species depicted in panel c. (c) Schematic of migration patterns for indicated telomeric species separated by two-dimensional gel electrophoresis (top panel). Two-dimensional TRF analysis of U-2 OS cells with or without FANCM depletion, hybridized under native and denatured conditions to detect the telomeric C-strand and G-strand (left and right panels). Colored arrows correspond to telomeric DNA species depicted in schematic. (d) Representative dot blot and quantitation of C-circle assays of U-2 OS cells with or without FANCM depletion. C-circle levels were normalized to the mean of scrambled control. Error bars represent the mean±SEM from n=3 experiments, *p<0.05, **p<0.005, Student's t-test. […] Out of 3 experiments, n≥150 cells scored per treatment, *p<0.05, **p<0.005, Mann-Whitney test. […]

U-2 OS cells = test: Terminal restriction fragment (TRF) analysis after FANCM siRNA; assay type: cell-based, human; conditions: FANCM depletion, siRNA 30 nM
From the text: as §1

[1] = target: T1, BLM-TOP3A-RMI (BTR) complex (human, UniProt P54132 1-1417; Q13472 1-1001; Q9H9A7 1-625; Q96E14 2-147, limits assumed); test: competition co-IP: peptide added to HEK-293 Flag-FANCM lysate, Flag IP, TOP3A immunoblot
T1 construct: Endogenous complex in cell lysates (BLM, TOP3A, RMI1, RMI2); In the co-IPs it is read out by TOP3A and/or RMI1 immunoblot
T1 sequence (P54132 whole entry, chain 1 of 4): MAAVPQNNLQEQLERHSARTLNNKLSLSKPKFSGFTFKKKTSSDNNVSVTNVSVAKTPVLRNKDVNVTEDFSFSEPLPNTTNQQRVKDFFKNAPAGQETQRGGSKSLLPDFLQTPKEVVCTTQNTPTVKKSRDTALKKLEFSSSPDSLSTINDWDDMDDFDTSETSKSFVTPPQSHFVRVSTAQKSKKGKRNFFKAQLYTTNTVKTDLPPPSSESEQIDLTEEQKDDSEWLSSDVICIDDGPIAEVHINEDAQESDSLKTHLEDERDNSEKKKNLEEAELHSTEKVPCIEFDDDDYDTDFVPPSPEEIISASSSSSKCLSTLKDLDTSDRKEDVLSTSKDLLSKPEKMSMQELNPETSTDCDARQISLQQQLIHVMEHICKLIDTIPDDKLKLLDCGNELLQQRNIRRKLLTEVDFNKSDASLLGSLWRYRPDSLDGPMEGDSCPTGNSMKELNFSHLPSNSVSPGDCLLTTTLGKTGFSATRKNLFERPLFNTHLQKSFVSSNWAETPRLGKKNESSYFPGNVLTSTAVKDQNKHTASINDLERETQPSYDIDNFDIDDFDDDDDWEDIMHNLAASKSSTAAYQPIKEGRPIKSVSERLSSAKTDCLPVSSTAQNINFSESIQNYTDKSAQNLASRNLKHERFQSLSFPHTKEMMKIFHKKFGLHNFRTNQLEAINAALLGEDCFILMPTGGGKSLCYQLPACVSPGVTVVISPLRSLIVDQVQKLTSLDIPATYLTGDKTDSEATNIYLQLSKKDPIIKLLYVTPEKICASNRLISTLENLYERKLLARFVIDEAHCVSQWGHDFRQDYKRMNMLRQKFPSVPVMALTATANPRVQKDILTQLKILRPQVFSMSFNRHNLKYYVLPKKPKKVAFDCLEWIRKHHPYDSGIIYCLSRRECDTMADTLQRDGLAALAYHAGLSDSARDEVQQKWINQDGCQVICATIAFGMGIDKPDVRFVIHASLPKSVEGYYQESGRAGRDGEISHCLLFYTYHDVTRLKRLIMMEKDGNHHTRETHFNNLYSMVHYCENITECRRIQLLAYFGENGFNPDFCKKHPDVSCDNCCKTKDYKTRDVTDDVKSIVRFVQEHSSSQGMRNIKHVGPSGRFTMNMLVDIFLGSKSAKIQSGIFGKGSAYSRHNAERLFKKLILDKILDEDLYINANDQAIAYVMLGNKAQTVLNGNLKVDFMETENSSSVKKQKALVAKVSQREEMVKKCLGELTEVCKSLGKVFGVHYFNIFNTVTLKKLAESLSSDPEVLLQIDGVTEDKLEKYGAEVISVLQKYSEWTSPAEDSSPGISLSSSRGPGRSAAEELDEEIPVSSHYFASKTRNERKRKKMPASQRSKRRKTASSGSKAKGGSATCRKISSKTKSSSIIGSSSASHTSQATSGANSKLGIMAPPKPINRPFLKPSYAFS
T1 sequence (Q13472 whole entry, chain 2 of 4): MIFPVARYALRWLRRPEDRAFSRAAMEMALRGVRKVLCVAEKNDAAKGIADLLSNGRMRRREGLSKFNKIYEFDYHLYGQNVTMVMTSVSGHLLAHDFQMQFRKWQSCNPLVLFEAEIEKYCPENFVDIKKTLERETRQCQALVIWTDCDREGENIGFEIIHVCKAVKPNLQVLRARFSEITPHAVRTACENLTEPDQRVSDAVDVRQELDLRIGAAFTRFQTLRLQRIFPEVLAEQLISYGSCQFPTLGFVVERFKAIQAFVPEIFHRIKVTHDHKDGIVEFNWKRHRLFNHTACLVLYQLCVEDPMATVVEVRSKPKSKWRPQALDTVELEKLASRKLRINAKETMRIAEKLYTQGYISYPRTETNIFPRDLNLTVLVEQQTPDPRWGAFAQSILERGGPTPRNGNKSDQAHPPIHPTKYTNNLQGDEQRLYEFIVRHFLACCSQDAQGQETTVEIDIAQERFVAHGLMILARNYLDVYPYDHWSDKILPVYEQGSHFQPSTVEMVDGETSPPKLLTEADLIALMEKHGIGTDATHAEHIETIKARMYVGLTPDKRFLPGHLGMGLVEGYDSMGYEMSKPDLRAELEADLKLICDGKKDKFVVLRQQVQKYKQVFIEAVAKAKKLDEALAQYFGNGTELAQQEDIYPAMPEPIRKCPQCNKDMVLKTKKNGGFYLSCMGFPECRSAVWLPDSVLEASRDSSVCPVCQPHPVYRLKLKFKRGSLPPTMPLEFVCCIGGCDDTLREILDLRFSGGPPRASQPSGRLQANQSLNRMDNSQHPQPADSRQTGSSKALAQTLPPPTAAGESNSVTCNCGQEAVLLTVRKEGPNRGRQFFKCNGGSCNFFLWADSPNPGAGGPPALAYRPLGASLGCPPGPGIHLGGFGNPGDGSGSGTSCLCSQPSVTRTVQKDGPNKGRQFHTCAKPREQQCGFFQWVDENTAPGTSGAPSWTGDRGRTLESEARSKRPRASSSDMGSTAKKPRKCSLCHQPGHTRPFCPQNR
T1 sequence (Q9H9A7 whole entry, chain 3 of 4): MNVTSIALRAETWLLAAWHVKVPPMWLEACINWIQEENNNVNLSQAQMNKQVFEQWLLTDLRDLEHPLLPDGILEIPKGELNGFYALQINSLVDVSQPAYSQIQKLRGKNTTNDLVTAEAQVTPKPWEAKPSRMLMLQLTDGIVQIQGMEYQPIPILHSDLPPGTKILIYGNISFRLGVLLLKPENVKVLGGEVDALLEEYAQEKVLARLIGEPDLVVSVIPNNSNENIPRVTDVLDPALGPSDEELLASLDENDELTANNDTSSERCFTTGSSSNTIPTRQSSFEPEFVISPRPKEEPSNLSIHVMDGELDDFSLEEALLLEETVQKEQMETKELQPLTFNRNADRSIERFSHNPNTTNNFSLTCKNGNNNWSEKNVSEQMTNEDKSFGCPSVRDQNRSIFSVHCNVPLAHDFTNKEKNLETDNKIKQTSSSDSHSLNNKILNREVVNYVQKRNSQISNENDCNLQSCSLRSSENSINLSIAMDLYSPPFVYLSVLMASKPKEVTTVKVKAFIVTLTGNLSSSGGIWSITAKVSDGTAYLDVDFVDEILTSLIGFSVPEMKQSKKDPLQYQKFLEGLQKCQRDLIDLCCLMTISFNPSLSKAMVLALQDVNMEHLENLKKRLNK
T1 sequence (Q96E14 2-147 limits assumed, chain 4 of 4): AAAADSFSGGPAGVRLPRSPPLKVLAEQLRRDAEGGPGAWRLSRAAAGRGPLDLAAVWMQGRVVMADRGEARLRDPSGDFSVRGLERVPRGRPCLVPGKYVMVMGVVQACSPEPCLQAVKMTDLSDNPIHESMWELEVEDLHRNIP
Protocol: For co-IP experiments involved the ER-inducible system, cells were lysed in IP buffer (20 mM Tris-HCl pH 7.5, 100 mM NaCl, 10% (v/v) glycerol, 0.5 mM EDTA, 1 mM DTT) supplemented with 1× mammalian protease inhibitor cocktail (Sigma Aldrich) and 50 U/ml Benzonase (Novagen) for 2 h at 4° C., with or without MM2 peptide variants (Mimotopes). Following lysis, NaCl concentration was increased to 250 mM, then the lysate cleared at 16,000×g for 15 mins. Supernatant was then mixed with 1 μg of α-FANCM (Abcam) or α-ER (Santa Cruz Biotechnology) and 20 μl protein G sepharose (GE Healthcare), or using α-Flag M2 agarose (Sigma Aldrich). Following 3 h of mixing at 4° C., beads were washed 4× with IP buffer, and 1× with 50 mM NH₄(CO₃)₂, 0.5 mM EDTA, then eluted with 500 mM NH₄OH (pH 11.0), 0.5 mM EDTA. Samples were then lyophilized and resuspended in 1×LDS loading buffer (Life Technologies) prior to immunoblotting.
To explore the possibility of specifically targeting ALT cell viability through FANCM, two approaches to disrupt the FANCM-BTR complex were adopted. […] To investigate the effects of FANCM-BTR complex disruption in ALT cells, the MM2 peptide was rendered functionally dependent on tamoxifen by fusion to the C-terminus of the estrogen receptor (MM2-ER) (FIG. 11a). […]

CC[C@@]1(O)C(=O)OCc2c1cc1n(c2=O)Cc2cc3ccccc3nc2-1 [CPT, Camptothecin]
BLM TIF frequencies (U2OS and HeLa cells; all samples): marginally affected TIF frequencies
nuclear (non-telomeric) BLM foci (U2OS and HeLa cells; siCt-transfected U2OS and HeLa cells, 1 μM camptothecin for 3 hours): robust formation of nuclear (non-telomeric) BLM foci

siFANCM2: Silencer Select siRNA FANCM2 (s33621) (SEQ ID NO: 13) (GAACAUACAUCAGAUAGCA; listed as RNA, chemistry not given here)
metaphase-TIFs (meta-TIFs) (U-2 OS ALT cells): significant increase in metaphase-TIFs
G-rich overhang and low molecular weight ss C-rich telomeric DNA (native TRF) (U-2 OS cells): most marked effects

B1: mutant human FANCM MM2 peptide containing the FF>AA mutant (peptide)
peptide: EDIFDCSRDLFSVTADLGACSPDSDDEILEHTSD
notes: also called MM2-FF>AA mutant peptide
binding result [1]: no binding (tested: 1-50 µM)
